Laboratory results published in ChEMBL document CHEMBL1268814, “Synthesis and biological evaluation of bivalent ligands for the cannabinoid 1 receptor” (J Med Chem, 2010).
The source made the active and inactive calls. The rule behind the calls is not given here.

Each molecule was assayed against T1, Cannabinoid receptor 1 (Homo sapiens, UniProt P21554) (assay: Antagonist activity at human brain CB1 receptor assessed as inhibition for [35S]GTPgammaS binding at 10000 nM). Conditions: not given.
Type: functional

T1 sequence (P21554 whole entry): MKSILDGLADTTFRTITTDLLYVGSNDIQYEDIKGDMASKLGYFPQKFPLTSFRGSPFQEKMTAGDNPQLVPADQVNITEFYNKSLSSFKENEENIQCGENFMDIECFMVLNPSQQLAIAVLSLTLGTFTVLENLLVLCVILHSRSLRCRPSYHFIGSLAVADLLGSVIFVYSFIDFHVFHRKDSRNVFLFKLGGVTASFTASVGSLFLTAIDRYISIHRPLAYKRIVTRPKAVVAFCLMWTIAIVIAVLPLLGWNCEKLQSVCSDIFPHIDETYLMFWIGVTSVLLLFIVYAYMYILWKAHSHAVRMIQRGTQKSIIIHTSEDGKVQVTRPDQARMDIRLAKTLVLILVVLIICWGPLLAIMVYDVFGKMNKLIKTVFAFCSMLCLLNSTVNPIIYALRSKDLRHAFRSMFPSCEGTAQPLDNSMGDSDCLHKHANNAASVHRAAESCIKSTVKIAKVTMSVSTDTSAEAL

Question: With `Cc1c(C(=O)NCCCCCCCN(C)CCCCCCCNC(=O)c2nn(-c3ccc(Cl)cc3Cl)c(-c3ccc(Cl)cc3)c2C)nn(-c2ccc(Cl)cc2Cl)c1-c1ccc(Cl)cc1` as the molecule, how does the Emax read?
Answer: The Emax was -32.7%.

Question: Which Emax does the source give for `Cc1c(C(=O)NCCCCCCCCCNCCCCCCCCCNC(=O)c2nn(-c3ccc(Cl)cc3Cl)c(-c3ccc(Cl)cc3)c2C)nn(-c2ccc(Cl)cc2Cl)c1-c1ccc(Cl)cc1` here?
Answer: Its Emax is 6.5%.

Question: `Cc1c(C(=O)NCCCCCCCNCCCCCCCNC(=O)c2nn(-c3ccc(Cl)cc3Cl)c(-c3ccc(Cl)cc3)c2C)nn(-c2ccc(Cl)cc2Cl)c1-c1ccc(Cl)cc1` was tested. Which Emax did it give?
Answer: The Emax was -38.8%.

What follows are molecules tested against T1, Cannabinoid receptor 1 (assay: Antagonist activity at human brain CB1 receptor assessed as inhibition for [35S]GTPgammaS binding). Conditions: not given.
Type: functional

Question: How did the EC50 turn out when `Cc1c(C(=O)NCCCCCCCCCCCN(C)CCCCCCCCCCCNC(=O)c2nn(-c3ccc(Cl)cc3Cl)c(-c3ccc(Cl)cc3)c2C)nn(-c2ccc(Cl)cc2Cl)c1-c1ccc(Cl)cc1` was run?
Answer: The EC50 was over 25000 nM.

Question: With `Cc1c(C(=O)NCCCCCCCCCCCNCCCCCCCCCCCNC(=O)c2nn(-c3ccc(Cl)cc3Cl)c(-c3ccc(Cl)cc3)c2C)nn(-c2ccc(Cl)cc2Cl)c1-c1ccc(Cl)cc1` as the molecule, how does the EC50 read?
Answer: The EC50 was over 25000 nM.

Question: Which EC50 does the source give for `Cc1c(C(=O)NCCCCCCCN(C)CCCCCCCNC(=O)c2nn(-c3ccc(Cl)cc3Cl)c(-c3ccc(Cl)cc3)c2C)nn(-c2ccc(Cl)cc2Cl)c1-c1ccc(Cl)cc1` here?
Answer: Its EC50 is 2240 nM.

Question: `Cc1c(C(=O)NCCCCCCCCCNCCCCCCCCCNC(=O)c2nn(-c3ccc(Cl)cc3Cl)c(-c3ccc(Cl)cc3)c2C)nn(-c2ccc(Cl)cc2Cl)c1-c1ccc(Cl)cc1` was tested. Which EC50 did it give?
Answer: The EC50 was 27.9 nM.

Question: With `Cc1c(C(=O)NCCCCCCCNCCCCCCCNC(=O)c2nn(-c3ccc(Cl)cc3Cl)c(-c3ccc(Cl)cc3)c2C)nn(-c2ccc(Cl)cc2Cl)c1-c1ccc(Cl)cc1` as the molecule, how does the EC50 read?
Answer: Its EC50 is 179 nM.

What follows are molecules tested against T1, Cannabinoid receptor 1 (assay: biochemical). Conditions: not given.
Type: cell-based, HEK293

Question: For `Cc1c(C(=O)NCCCCCCCCCCCN(C)CCCCCCCCCCCNC(=O)c2nn(-c3ccc(Cl)cc3Cl)c(-c3ccc(Cl)cc3)c2C)nn(-c2ccc(Cl)cc2Cl)c1-c1ccc(Cl)cc1`, which Ki is on record?
Answer: Its Ki is 1290 nM.

Question: `Cc1c(C(=O)NCCCCCCCCCCCNCCCCCCCCCCCNC(=O)c2nn(-c3ccc(Cl)cc3Cl)c(-c3ccc(Cl)cc3)c2C)nn(-c2ccc(Cl)cc2Cl)c1-c1ccc(Cl)cc1` was tested. Which Ki did it give?
Answer: Its Ki is 37 nM.

Question: For `Cc1c(C(=O)NCCCCCCCN(C)CCCCCCCNC(=O)c2nn(-c3ccc(Cl)cc3Cl)c(-c3ccc(Cl)cc3)c2C)nn(-c2ccc(Cl)cc2Cl)c1-c1ccc(Cl)cc1`, which Ki is on record?
Answer: Its Ki is 27.5 nM.

Question: How did the Ki turn out when `Cc1c(C(=O)NCCCCCCCCCNCCCCCCCCCNC(=O)c2nn(-c3ccc(Cl)cc3Cl)c(-c3ccc(Cl)cc3)c2C)nn(-c2ccc(Cl)cc2Cl)c1-c1ccc(Cl)cc1` was run?
Answer: Its Ki is 57.4 nM.

Question: How did the Ki turn out when `Cc1c(C(=O)NCCCCCCCNCCCCCCCNC(=O)c2nn(-c3ccc(Cl)cc3Cl)c(-c3ccc(Cl)cc3)c2C)nn(-c2ccc(Cl)cc2Cl)c1-c1ccc(Cl)cc1` was run?
Answer: Its Ki is 4.41 nM.

The molecules below were run against T1, Cannabinoid receptor 1 (assay: not given). Conditions: CHO.

Question: `Cc1c(C(=O)NCCCCCCCCCCCN(C)CCCCCCCCCCCNC(=O)c2nn(-c3ccc(Cl)cc3Cl)c(-c3ccc(Cl)cc3)c2C)nn(-c2ccc(Cl)cc2Cl)c1-c1ccc(Cl)cc1` was tested. Which Ke did it give?
Answer: Its Ke is “inactive”.

Question: Which Ke does the source give for `Cc1c(C(=O)NCCCCCCCCCCCNCCCCCCCCCCCNC(=O)c2nn(-c3ccc(Cl)cc3Cl)c(-c3ccc(Cl)cc3)c2C)nn(-c2ccc(Cl)cc2Cl)c1-c1ccc(Cl)cc1` here?
Answer: Its Ke is over 10000 nM.

Question: `Cc1c(C(=O)NCCCCCCCN(C)CCCCCCCNC(=O)c2nn(-c3ccc(Cl)cc3Cl)c(-c3ccc(Cl)cc3)c2C)nn(-c2ccc(Cl)cc2Cl)c1-c1ccc(Cl)cc1` was tested. Which Ke did it give?
Answer: Its Ke is 478 nM.

Question: Which Ke does the source give for `Cc1c(C(=O)NCCCCCCCCCNCCCCCCCCCNC(=O)c2nn(-c3ccc(Cl)cc3Cl)c(-c3ccc(Cl)cc3)c2C)nn(-c2ccc(Cl)cc2Cl)c1-c1ccc(Cl)cc1` here?
Answer: The Ke was 4160 nM.

Question: How did the Ke turn out when `Cc1c(C(=O)NCCCCCCCNCCCCCCCNC(=O)c2nn(-c3ccc(Cl)cc3Cl)c(-c3ccc(Cl)cc3)c2C)nn(-c2ccc(Cl)cc2Cl)c1-c1ccc(Cl)cc1` was run?
Answer: The Ke was 567 nM.

These molecules were tested against T1, Cannabinoid receptor 1 (assay: Displacement of [3H]CP55940 from human CB1 receptor expressed in HEK293 cells). Conditions: not given.
Type: cell-based

Question: `Cc1c(C(=O)NCCCCCCCCCCCN(C)CCCCCCCCCCCNC(=O)c2nn(-c3ccc(Cl)cc3Cl)c(-c3ccc(Cl)cc3)c2C)nn(-c2ccc(Cl)cc2Cl)c1-c1ccc(Cl)cc1` was tested. Which Ki did it give?
Answer: Its Ki is 1890 nM.

Question: `Cc1c(C(=O)NCCCCCCCCCCCNCCCCCCCCCCCNC(=O)c2nn(-c3ccc(Cl)cc3Cl)c(-c3ccc(Cl)cc3)c2C)nn(-c2ccc(Cl)cc2Cl)c1-c1ccc(Cl)cc1` was tested. Which Ki did it give?
Answer: The Ki was 99.3 nM.

Question: For `Cc1c(C(=O)NCCCCCCCN(C)CCCCCCCNC(=O)c2nn(-c3ccc(Cl)cc3Cl)c(-c3ccc(Cl)cc3)c2C)nn(-c2ccc(Cl)cc2Cl)c1-c1ccc(Cl)cc1`, which Ki is on record?
Answer: The Ki was 17.3 nM.

Question: Which Ki does the source give for `Cc1c(C(=O)NCCCCCCCCCNCCCCCCCCCNC(=O)c2nn(-c3ccc(Cl)cc3Cl)c(-c3ccc(Cl)cc3)c2C)nn(-c2ccc(Cl)cc2Cl)c1-c1ccc(Cl)cc1` here?
Answer: The Ki was 54.1 nM.

Question: With `Cc1c(C(=O)NCCCCCCCNCCCCCCCNC(=O)c2nn(-c3ccc(Cl)cc3Cl)c(-c3ccc(Cl)cc3)c2C)nn(-c2ccc(Cl)cc2Cl)c1-c1ccc(Cl)cc1` as the molecule, how does the Ki read?
Answer: Its Ki is 12.3 nM.

The molecules below were run on Mus musculus (assay: Inhibition of compound 21-induced antinociception in mouse at 10 mg/kg, ip administered 30 mins before compound-21 dosing by tail flick latency test). Conditions: not given.

Question: `Cc1c(C(=O)NCCCCCCCN(C)CCCCCCCNC(=O)c2nn(-c3ccc(Cl)cc3Cl)c(-c3ccc(Cl)cc3)c2C)nn(-c2ccc(Cl)cc2Cl)c1-c1ccc(Cl)cc1` was tested. Which inhibition did it give?
Answer: Its inhibition is “Active”.

Question: How did the inhibition turn out when `Cc1c(C(=O)NCCCCCCCNCCCCCCCNC(=O)c2nn(-c3ccc(Cl)cc3Cl)c(-c3ccc(Cl)cc3)c2C)nn(-c2ccc(Cl)cc2Cl)c1-c1ccc(Cl)cc1` was run?
Answer: Its inhibition is “inactive”.

What follows are molecules tested against Cannabinoid receptor 2 (Homo sapiens, UniProt P34972) (assay: Displacement of [3H]CP55940 from human CB2 receptor expressed in CHOK1 cells). Conditions: not given.
Type: cell-based, CHO-K1

Chain of Cannabinoid receptor 2 (P34972 whole entry): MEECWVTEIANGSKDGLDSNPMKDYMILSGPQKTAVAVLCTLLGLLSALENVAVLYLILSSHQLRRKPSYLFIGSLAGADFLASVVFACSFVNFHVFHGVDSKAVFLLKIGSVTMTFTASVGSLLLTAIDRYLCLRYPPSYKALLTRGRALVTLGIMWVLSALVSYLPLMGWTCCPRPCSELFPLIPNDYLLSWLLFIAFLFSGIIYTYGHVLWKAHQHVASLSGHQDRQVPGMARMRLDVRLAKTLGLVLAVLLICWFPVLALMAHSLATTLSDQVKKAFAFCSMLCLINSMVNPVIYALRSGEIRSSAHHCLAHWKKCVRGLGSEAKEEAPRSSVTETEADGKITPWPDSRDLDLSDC

Question: Which Ki does the source give for `Cc1c(C(=O)NCCCCCCCCCCCNCCCCCCCCCCCNC(=O)c2nn(-c3ccc(Cl)cc3Cl)c(-c3ccc(Cl)cc3)c2C)nn(-c2ccc(Cl)cc2Cl)c1-c1ccc(Cl)cc1` here?
Answer: The Ki was over 2500 nM.

Question: How did the Ki turn out when `Cc1c(C(=O)NCCCCCCCCCNCCCCCCCCCNC(=O)c2nn(-c3ccc(Cl)cc3Cl)c(-c3ccc(Cl)cc3)c2C)nn(-c2ccc(Cl)cc2Cl)c1-c1ccc(Cl)cc1` was run?
Answer: Its Ki is over 2500 nM.

Question: Which Ki does the source give for `Cc1c(C(=O)NCCCCCCCNCCCCCCCNC(=O)c2nn(-c3ccc(Cl)cc3Cl)c(-c3ccc(Cl)cc3)c2C)nn(-c2ccc(Cl)cc2Cl)c1-c1ccc(Cl)cc1` here?
Answer: Its Ki is 553 nM.

What follows are molecules tested against T1, Cannabinoid receptor 1 (assay: Antagonist activity at human brain CB1 receptor by calcium mobilization assay). Conditions: read-out: pA2 (converted).
Type: functional

Question: `Cc1c(C(=O)NCCCCCCCCCCCN(C)CCCCCCCCCCCNC(=O)c2nn(-c3ccc(Cl)cc3Cl)c(-c3ccc(Cl)cc3)c2C)nn(-c2ccc(Cl)cc2Cl)c1-c1ccc(Cl)cc1` was tested. Which Kb did it give?
Answer: Its Kb is 501 nM.

Question: How did the Kb turn out when `Cc1c(C(=O)NCCCCCCCCCCCNCCCCCCCCCCCNC(=O)c2nn(-c3ccc(Cl)cc3Cl)c(-c3ccc(Cl)cc3)c2C)nn(-c2ccc(Cl)cc2Cl)c1-c1ccc(Cl)cc1` was run?
Answer: Its Kb is 27.5 nM.

Question: Which Kb does the source give for `Cc1c(C(=O)NCCCCCCCN(C)CCCCCCCNC(=O)c2nn(-c3ccc(Cl)cc3Cl)c(-c3ccc(Cl)cc3)c2C)nn(-c2ccc(Cl)cc2Cl)c1-c1ccc(Cl)cc1` here?
Answer: The Kb was 4.27 nM.

Question: With `Cc1c(C(=O)NCCCCCCCCCNCCCCCCCCCNC(=O)c2nn(-c3ccc(Cl)cc3Cl)c(-c3ccc(Cl)cc3)c2C)nn(-c2ccc(Cl)cc2Cl)c1-c1ccc(Cl)cc1` as the molecule, how does the Kb read?
Answer: Its Kb is 17.4 nM.

Question: `Cc1c(C(=O)NCCCCCCCNCCCCCCCNC(=O)c2nn(-c3ccc(Cl)cc3Cl)c(-c3ccc(Cl)cc3)c2C)nn(-c2ccc(Cl)cc2Cl)c1-c1ccc(Cl)cc1` was tested. Which Kb did it give?
Answer: The Kb was 8.32 nM.

These molecules were tested against Cannabinoid receptor 1 (Rattus norvegicus, UniProt P20272) (assay: Antagonist activity at rat brain CB1 receptor assessed as inhibition of [35S]GTPgammaS binding). Conditions: not given.
Type: functional

Chain of Cannabinoid receptor 1 (Rattus norvegicus, UniProt P20272) (P20272 whole entry): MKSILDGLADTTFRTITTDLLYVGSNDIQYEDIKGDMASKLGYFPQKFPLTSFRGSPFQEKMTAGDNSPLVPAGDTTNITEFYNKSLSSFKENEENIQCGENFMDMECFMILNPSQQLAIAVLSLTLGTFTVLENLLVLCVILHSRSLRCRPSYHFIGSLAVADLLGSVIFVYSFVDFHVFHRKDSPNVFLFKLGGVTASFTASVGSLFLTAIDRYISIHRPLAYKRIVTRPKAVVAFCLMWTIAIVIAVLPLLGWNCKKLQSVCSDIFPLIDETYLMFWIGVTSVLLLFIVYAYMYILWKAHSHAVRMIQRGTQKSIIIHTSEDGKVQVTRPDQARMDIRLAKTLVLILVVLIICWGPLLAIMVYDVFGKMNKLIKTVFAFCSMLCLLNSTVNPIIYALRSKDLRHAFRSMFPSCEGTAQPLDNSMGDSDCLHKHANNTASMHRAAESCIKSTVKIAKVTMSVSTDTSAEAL

Question: Which EC50 does the source give for `Cc1c(C(=O)NCCCCCCCCCCCN(C)CCCCCCCCCCCNC(=O)c2nn(-c3ccc(Cl)cc3Cl)c(-c3ccc(Cl)cc3)c2C)nn(-c2ccc(Cl)cc2Cl)c1-c1ccc(Cl)cc1` here?
Answer: The EC50 was 29.3 nM.

Question: `Cc1c(C(=O)NCCCCCCCCCCCNCCCCCCCCCCCNC(=O)c2nn(-c3ccc(Cl)cc3Cl)c(-c3ccc(Cl)cc3)c2C)nn(-c2ccc(Cl)cc2Cl)c1-c1ccc(Cl)cc1` was tested. Which EC50 did it give?
Answer: The EC50 was over 10000 nM.

Question: With `Cc1c(C(=O)NCCCCCCCN(C)CCCCCCCNC(=O)c2nn(-c3ccc(Cl)cc3Cl)c(-c3ccc(Cl)cc3)c2C)nn(-c2ccc(Cl)cc2Cl)c1-c1ccc(Cl)cc1` as the molecule, how does the EC50 read?
Answer: Its EC50 is 1460 nM.

Question: `Cc1c(C(=O)NCCCCCCCCCNCCCCCCCCCNC(=O)c2nn(-c3ccc(Cl)cc3Cl)c(-c3ccc(Cl)cc3)c2C)nn(-c2ccc(Cl)cc2Cl)c1-c1ccc(Cl)cc1` was tested. Which EC50 did it give?
Answer: The EC50 was 1.34 nM.

Question: How did the EC50 turn out when `Cc1c(C(=O)NCCCCCCCNCCCCCCCNC(=O)c2nn(-c3ccc(Cl)cc3Cl)c(-c3ccc(Cl)cc3)c2C)nn(-c2ccc(Cl)cc2Cl)c1-c1ccc(Cl)cc1` was run?
Answer: Its EC50 is 1190 nM.

The molecules below were run against Cannabinoid receptor 1 (Rattus norvegicus) (UniProt P20272) (assay: Antagonist activity at rat brain CB1 receptor assessed as inhibition of [35S]GTPgammaS binding at 10000 nM). Conditions: not given.
Type: functional

Chain of Cannabinoid receptor 1 (Rattus norvegicus) (P20272 whole entry): as the sequence (P20272 whole entry) above

Question: With `Cc1c(C(=O)NCCCCCCCCCCCN(C)CCCCCCCCCCCNC(=O)c2nn(-c3ccc(Cl)cc3Cl)c(-c3ccc(Cl)cc3)c2C)nn(-c2ccc(Cl)cc2Cl)c1-c1ccc(Cl)cc1` as the molecule, how does the Emax read?
Answer: The Emax was 17.3%.

Question: `Cc1c(C(=O)NCCCCCCCCCCCNCCCCCCCCCCCNC(=O)c2nn(-c3ccc(Cl)cc3Cl)c(-c3ccc(Cl)cc3)c2C)nn(-c2ccc(Cl)cc2Cl)c1-c1ccc(Cl)cc1` was tested. Which Emax did it give?
Answer: Its Emax is -12.2%.

Question: With `Cc1c(C(=O)NCCCCCCCN(C)CCCCCCCNC(=O)c2nn(-c3ccc(Cl)cc3Cl)c(-c3ccc(Cl)cc3)c2C)nn(-c2ccc(Cl)cc2Cl)c1-c1ccc(Cl)cc1` as the molecule, how does the Emax read?
Answer: Its Emax is -40.8%.

Question: How did the Emax turn out when `Cc1c(C(=O)NCCCCCCCCCNCCCCCCCCCNC(=O)c2nn(-c3ccc(Cl)cc3Cl)c(-c3ccc(Cl)cc3)c2C)nn(-c2ccc(Cl)cc2Cl)c1-c1ccc(Cl)cc1` was run?
Answer: Its Emax is 10.4%.

Question: `Cc1c(C(=O)NCCCCCCCNCCCCCCCNC(=O)c2nn(-c3ccc(Cl)cc3Cl)c(-c3ccc(Cl)cc3)c2C)nn(-c2ccc(Cl)cc2Cl)c1-c1ccc(Cl)cc1` was tested. Which Emax did it give?
Answer: The Emax was -25%.
